For experiment [1], the system named is Tumor Cell line. Kind of experiment: Multidrug resistant(MDR) reversing activity in vitro in human tumor cells; Inactive. Type of experiment: functional, cell-based.
Experiment [2] has as its system Tumor Cell line. Kind of experiment: Multidrug resistant(MDR) reversing activity in vitro in human tumor cells; Active. Type of experiment: functional, cell-based.

Three compounds from ChEMBL document CHEMBL1131959, “Synthesis of glucuronides of multidrug resistance reversing drug MS-209” (Bioorg Med Chem Lett, 1999) can be followed below.

Activity calls are given as the source filed them. The calls are words filed in the database; no cut-off is given here.

For the compound `O=C(O)[C@H]1O[C@@H](O[C@@H](COc2cccc3ncccc23)CN2CCN(C(=O)C(c3ccccc3)c3ccccc3)CC2)[C@H](O)[C@@H](O)[C@@H]1O`, the Reversing activity entry in experiment [1] is “inactive”.
With `O=C(C(c1ccccc1)c1ccccc1)N1CCN(C[C@@H](O)COc2cccc3ncccc23)CC1`, the Reversing activity result in experiment [2] was “Active”.
With `O=C(O)[C@H]1O[C@@H](O[C@H](COc2cccc3ncccc23)CN2CCN(C(=O)C(c3ccccc3)c3ccccc3)CC2)[C@H](O)[C@@H](O)[C@@H]1O`, the Reversing activity entry in experiment [1] was “inactive”.
